Results: patent US8148391B2 (Cephalon, Inc., priority 2006, dated 2012)
Like-named read-outs stand apart in the source and are kept apart here.

Key:
[1] = biological target: T1, c-Met (cytoplasmic domain) (Homo sapiens, UniProt P08581); experiment: c-Met Kinase Assay (same methods as for ALK, with modifications); format: biochemical
T1 construct: 10 ng/mL c-Met (cytoplasmic domain, Invitrogen Corporation #PV3143); purchased Invitrogen Corporation PV3143
Method in brief: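 Europium-labeled PT66 antibody (Eu-N1) detects substrate phosphorylation on wells coated with phospholipase C-γ at 10 μg/mL. The kinase, the cytoplasmic domain of c-Met at 10 ng/mL, starts the reaction, which proceeds 15 minutes at 37° C.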

[2] = biological target: T2, baculovirus-expressed ALK (Homo sapiens, UniProt Q9UM73); experiment: ALK Kinase Assay (ELISA-type, time-resolved fluorescence); format: biochemical
T2 construct: host or cells: baculovirus expression system
T2 sequence (Q9UM73 19-1620): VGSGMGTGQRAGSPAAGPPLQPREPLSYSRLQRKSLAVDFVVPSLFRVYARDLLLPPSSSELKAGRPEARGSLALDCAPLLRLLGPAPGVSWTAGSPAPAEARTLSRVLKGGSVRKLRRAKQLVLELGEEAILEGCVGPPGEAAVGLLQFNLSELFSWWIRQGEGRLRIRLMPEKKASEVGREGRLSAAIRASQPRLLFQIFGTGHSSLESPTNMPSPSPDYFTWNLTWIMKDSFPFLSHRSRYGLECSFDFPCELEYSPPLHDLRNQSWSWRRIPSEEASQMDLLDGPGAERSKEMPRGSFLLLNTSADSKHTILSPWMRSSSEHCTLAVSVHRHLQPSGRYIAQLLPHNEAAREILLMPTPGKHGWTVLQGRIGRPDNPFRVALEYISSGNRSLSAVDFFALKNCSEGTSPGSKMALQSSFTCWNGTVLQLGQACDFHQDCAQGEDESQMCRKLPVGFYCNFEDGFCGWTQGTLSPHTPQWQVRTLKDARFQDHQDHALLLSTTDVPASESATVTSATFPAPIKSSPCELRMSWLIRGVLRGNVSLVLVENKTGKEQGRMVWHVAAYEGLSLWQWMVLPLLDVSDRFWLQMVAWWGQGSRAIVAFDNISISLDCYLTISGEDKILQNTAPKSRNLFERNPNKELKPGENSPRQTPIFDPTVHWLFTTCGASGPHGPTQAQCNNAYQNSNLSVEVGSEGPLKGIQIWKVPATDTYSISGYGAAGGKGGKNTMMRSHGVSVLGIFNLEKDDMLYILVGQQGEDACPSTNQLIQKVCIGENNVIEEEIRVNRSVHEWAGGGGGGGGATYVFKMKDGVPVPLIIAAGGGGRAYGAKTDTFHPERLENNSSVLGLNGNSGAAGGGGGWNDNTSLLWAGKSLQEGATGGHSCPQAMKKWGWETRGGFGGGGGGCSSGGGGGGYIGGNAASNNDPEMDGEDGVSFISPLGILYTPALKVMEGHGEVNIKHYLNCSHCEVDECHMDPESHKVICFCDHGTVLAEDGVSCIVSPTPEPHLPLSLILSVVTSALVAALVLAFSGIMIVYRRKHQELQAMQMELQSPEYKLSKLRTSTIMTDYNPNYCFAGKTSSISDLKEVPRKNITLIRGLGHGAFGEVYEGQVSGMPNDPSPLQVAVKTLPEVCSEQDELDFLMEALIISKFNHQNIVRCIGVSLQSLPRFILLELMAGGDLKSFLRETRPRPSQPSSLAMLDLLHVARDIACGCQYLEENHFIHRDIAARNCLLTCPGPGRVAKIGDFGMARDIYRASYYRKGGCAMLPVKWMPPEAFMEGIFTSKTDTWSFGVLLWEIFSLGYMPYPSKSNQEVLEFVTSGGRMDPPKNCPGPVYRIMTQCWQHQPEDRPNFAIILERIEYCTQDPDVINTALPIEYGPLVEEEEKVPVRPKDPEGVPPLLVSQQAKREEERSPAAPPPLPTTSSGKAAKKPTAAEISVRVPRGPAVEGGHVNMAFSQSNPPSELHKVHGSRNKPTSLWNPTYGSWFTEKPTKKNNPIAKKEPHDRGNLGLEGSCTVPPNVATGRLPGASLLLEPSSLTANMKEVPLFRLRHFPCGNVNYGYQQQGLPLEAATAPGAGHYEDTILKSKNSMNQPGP
Method in brief: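 Plates coated with phospholipase C-γ substrate (10 μg/mL in TBS); reaction started with 30 ng/ml ALK and run 15 min at 37° C. Phosphorylated substrate detected with Eu-N1-labeled PT66 antibody. IC50 from sigmoidal variable-slope fit of percent inhibition vs log concentration.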

[3] = c-Met kinase inhibition, 1 μM ATP (Km level), read-out: cMet Activity
[4] = ALK kinase inhibition, 1 μM ATP (Km level), read-out: ALK Activity
[5] = 1 μM ATP (Km level), 10 ng/mL c-Met, read-out: cMet Activity (c-Met kinase inhibition, IC50 class)
[6] = 1 μM ATP (Km level), 30 ng/ml ALK, 37° C., 15 minutes, read-out: ALK Activity (ALK kinase inhibition, IC50 class)
[7] = 1 μM ATP (Km level), read-out: cMet Activity (c-Met Kinase Inhibition, IC50)
[8] = 1 μM ATP (Km level), read-out: ALK Activity (ALK Kinase Inhibition, IC50)
[9] = c-Met kinase inhibition, 1 μM ATP, read-out: cMet Activity
[10] = ALK kinase inhibition, 1 μM ATP, read-out: ALK Activity

T1 sequence (P08581 956-1390 limits assumed): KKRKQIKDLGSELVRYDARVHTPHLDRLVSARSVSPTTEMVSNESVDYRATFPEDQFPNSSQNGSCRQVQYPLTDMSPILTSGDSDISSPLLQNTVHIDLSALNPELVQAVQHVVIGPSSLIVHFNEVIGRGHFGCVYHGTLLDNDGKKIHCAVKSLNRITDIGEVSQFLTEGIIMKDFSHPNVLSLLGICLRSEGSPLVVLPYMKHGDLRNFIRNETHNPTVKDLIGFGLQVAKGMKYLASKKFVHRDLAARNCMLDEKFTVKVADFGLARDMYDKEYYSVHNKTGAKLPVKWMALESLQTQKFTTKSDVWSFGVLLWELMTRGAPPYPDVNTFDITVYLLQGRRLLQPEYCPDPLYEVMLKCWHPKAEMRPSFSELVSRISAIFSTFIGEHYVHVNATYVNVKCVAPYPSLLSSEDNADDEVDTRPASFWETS

## CCN1C(=O)CCCc2cc(Nc3ncc(Cl)c(Nc4cc(Cl)ccc4OC)n3)c(OC)cc21 [Example 137, 7-[5-Chloro-4-(5-chloro-2-methoxy-phenylamino)-pyrimidin-2-ylamino]-1-ethyl-8-methoxy-1,3,4,5-tetrahydro-benzo[b]azepin-2-one]
[1]; [3]
  IC50: > 10000 nM
[2]; [4]
  IC50: 100 to 1000 nM

## CNC(=O)C1(Nc2nc(Nc3cc4c(cc3OC)CCN(CCOC)CC4)ncc2Cl)CC1 [Example 1196, 1-{5-Chloro-2-[8-methoxy-3-(2-methoxy-ethyl)-2,3,4,5-tetrahydro-1H-benzo[d]azepin-7-ylamino]-pyrimidin-4-ylamino}-cyclopropanecarboxylic acid methylamide]
[1]; [5]
  IC50: > 10000 nM
[2]; [6]
  IC50: 1000 to 10000 nM

## COCCN1CCc2ccc(Nc3ncc(Cl)c(Nc4c(F)cccc4OCC#N)n3)cc2CC1 [Example 931, (2-{5-Chloro-2-[3-(2-methoxy-ethyl)-2,3,4,5-tetrahydro-1H-3-benzazepin-7-ylamino]-pyrimidin-4-ylamino}-3-fluoro-phenoxy)-acetonitrile]
[1]; [7]
  IC50: < 100 nM
[2]; [8]
  IC50: < 100 nM

## COCCN1C2CCC1c1cc(Nc3ncc(Cl)c(Nc4c(F)cccc4C(=O)OC(C)C)n3)ccc1C2 (centres unmarked) [Example 457, 2-{5-Chloro-2-[12-(2-methoxy-ethyl)-12-aza-tricyclo[7.2.1.0(2,7)]dodeca-2(7),3,5-trien-4-ylamino]-pyrimidin-4-ylamino}-3-fluoro-benzoic acid isopropyl ester]
[1]; [3]
  IC50: 100 to 1000 nM
[2]; [4]
  IC50: 100 to 1000 nM

## COc1cc2c(cc1Nc1ncc(Cl)c(Nc3ccccc3S(=O)(=O)N(C)C)n1)CCC(N1CCOCC1)CC2 (centres unmarked) [Example 1049, 2-[5-Chloro-2-(3-methoxy-7-morpholin-4-yl-6,7,8,9-tetrahydro-5H-benzocyclohepten-2-ylamino)-pyrimidin-4-ylamino]-N,N-dimethyl-benzenesulfonamide]
[1]; [5]
  IC50: > 10000 nM
[2]; [6]
  IC50: < 100 nM

## COCCN1CCc2cc(Nc3ncc(Cl)c(Nc4ccc(C(N)=O)cc4OC)n3)c(OC)cc2CC1 [Example 1156, 4-{5-Chloro-2-[8-methoxy-3-(2-methoxy-ethyl)-2,3,4,5-tetrahydro-1H-benzo[d]azepin-7-ylamino]-pyrimidin-4-ylamino}-3-methoxy-benzamide]
[1]; [5]
  IC50: > 10000 nM
[2]; [6]
  IC50: < 100 nM

## CN1C(=O)OCCc2cc(Nc3ncc(Cl)c(Nc4c(F)cccc4OCCO)n3)ccc21 [Example 1732, 2-{5-Chloro-4-[2-fluoro-6-(2-hydroxy-ethoxy)-phenylamino]-pyrimidin-2-ylamino}-5-methyl-8,9-dihydro-5H-7-oxa-5-aza-benzocyclohepten-6-one]
[1]; [9]
  IC50: < 100 nM
[2]; [10]
  IC50: < 100 nM

## CC1(C)CCC(=O)Nc2ccc(Nc3ncc(Cl)c(Nc4ccc(N5CCC(C(=O)O)CC5)cc4-n4cccn4)n3)cc21 [Example 629, 1-{4-[5-Chloro-2-(5,5-dimethyl-2-oxo-2,3,4,5-tetrahydro-1H-benzo[b]azepin-7-ylamino)-pyrimidin-4-ylamino]-3-pyrazol-1-yl-phenyl}-piperidine-4-carboxylic acid]
[1]; [7]
  IC50: 1000 to 10000 nM
[2]; [8]
  IC50: < 100 nM

## COc1cc2c(cc1Nc1ncc(Cl)c(Nc3ccc(N4CCOCC4)cc3OC)n1)CCN(CC(=O)N1CCOCC1)CC2 [Example 1526, 2-{7-[5-Chloro-4-(2-methoxy-4-morpholin-4-yl-phenylamino)-pyrimidin-2-ylamino]-8-methoxy-1,2,4,5-tetrahydro-3-benzazepin-3-yl}-1-morpholin-4-yl-ethanone]
[1]; [9]
  IC50: > 10000 nM
[2]; [10]
  IC50: < 100 nM

## CCN1C(=O)CCCc2c(OC)ccc(Nc3ncc(Cl)c(Nc4ccc(N5CCOCC5)cc4OC)n3)c21 [Example 125, 9-[5-Chloro-4-(2-methoxy-4-morpholin-4-yl-phenylamino)-pyrimidin-2-ylamino]-1-ethyl-6-methoxy-1,3,4,5-tetrahydro-benzo[b]azepin-2-one]
[1]; [3]
  IC50: > 10000 nM
[2]; [4]
  IC50: < 100 nM

## COc1cc2c(cc1Nc1ncc(Cl)c(N[C@@H]3CCCC[C@H]3NS(C)(=O)=O)n1)NC(=O)CN(CC1CC1)C2 [Example 1666, N-(1R,2R)-{2-[5-Chloro-2-(4-cyclopropylmethyl-7-methoxy-2-oxo-2,3,4,5-tetrahydro-1H-benzo[e][1,4]diazepin-8-ylamino)-pyrimidin-4-ylamino]-cyclohexyl}-methanesulfonamide]
[1]; [9]
  IC50: > 10000 nM
[2]; [10]
  IC50: < 100 nM

## COCCN1CCc2cc(Nc3ncc(Cl)c(Nc4cc(C(N)=O)ccc4OC)n3)c(OC)cc2CC1 [Example 1140, 3-{5-Chloro-2-[8-methoxy-3-(2-methoxy-ethyl)-2,3,4,5-tetrahydro-1H-benzo[d]azepin-7-ylamino]-pyrimidin-4-ylamino}-4-methoxy-benzamide]
[1]; [5]
  IC50: > 10000 nM
[2]; [6]
  IC50: 1000 to 10000 nM

## COc1c(Nc2ncc(Cl)c(NC3CCCCNC3=O)n2)ccc2c1CCC(N1CCOCC1)CC2 (mixture of isomers) [Example 902, 3-[5-Chloro-2-(1-methoxy-7-morpholin-4-yl-6,7,8,9-tetrahydro-5H-benzocyclohepten-2-ylamino)-pyrimidin-4-ylamino]-azepan-2-one]
[1]; [7]
  IC50: > 10000 nM
[2]; [8]
  IC50: 100 to 1000 nM

## CS(=O)(=O)N[C@@H]1CCCC[C@H]1Nc1nc(Nc2ccc3c(c2)CCC(NCC(F)F)CC3)ncc1Cl (stereo partly drawn) [Example 662, N-((1R,2R)-2-{5-Chloro-2-[7-(2,2-difluoro-ethylamino)-6,7,8,9-tetrahydro-5H-benzocyclohepten-2-ylamino]-pyrimidin-4-ylamino}-cyclohexyl)-methanesulfonamide]
[1]; [7]
  IC50: 100 to 1000 nM
[2]; [8]
  IC50: < 100 nM

## COc1cc2c(cc1Nc1ncc(Cl)c(N[C@@H]3CCCC[C@H]3NS(C)(=O)=O)n1)CCN(CCO)CC2 [Example 1531, N-((1R,2R)-2-{5-Chloro-2-[3-(2-hydroxy-ethyl)-8-methoxy-2,3,4,5-tetrahydro-1H-3-benzazepin-7-ylamino]-pyrimidin-4-ylamino}-cyclohexyl)-methanesulfonamide]
[1]; [9]
  IC50: > 10000 nM
[2]; [10]
  IC50: < 100 nM

## COCCN1CCc2ccc(Nc3ncc(Cl)c(N[C@@H]4[C@H](C(N)=O)[C@@H]5C=C[C@H]4C5)n3)cc2CC1 (relative stereo) [Example 459, (2-endo, 3-endo)-3-{5-Chloro-2-[3-(2-methoxy-ethyl)-2,3,4,5-tetrahydro-1H-benzo[d]azepin-7-ylamino]-pyrimidin-4-ylamino}-bicyclo[2.2.1]hept-5-ene-2-carboxylic acid amide]
[1]; [3]
  IC50: 1000 to 10000 nM
[2]; [4]
  IC50: < 100 nM

## COc1cc(N2CCOCC2)ccc1Nc1nc(Nc2ccc3c(c2)NCCCC3(C)C)ncc1Cl [Example 1614, 5-Chloro-N*2*-(5,5-dimethyl-2,3,4,5-tetrahydro-1H-benzo[b]azepin-8-yl)-N*4*-(2-methoxy-4-morpholin-4-yl-phenyl)-pyrimidine-2,4-diamine]
[1]; [9]
  IC50: > 10000 nM
[2]; [10]
  IC50: 100 to 1000 nM

## CNC(=O)c1sccc1Nc1nc(Nc2ccc3c(c2)OCCCN3C(=O)OC(C)C)ncc1Cl [Example 1435, 3-[5-Chloro-4-(2-methylcarbamoyl-thiophen-3-ylamino)-pyrimidin-2-ylamino]-7,8-dihydro-6H-5-oxa-9-aza-benzocycloheptene-9-carboxylic acid isopropyl ester]
[1]; [5]
  IC50: 100 to 1000 nM
[2]; [6]
  IC50: 100 to 1000 nM

## CCN1CCc2cc(Nc3ncc(Cl)c(NC4C5C=CC(C5)C4C(N)=O)n3)c(OC)cc2CC1=O (stereo not drawn) [Example 252, (2-exo,3-exo)-3-[5-Chloro-2-(3-ethyl-8-methoxy-2-oxo-2,3,4,5-tetrahydro-1H-benzo[d]azepin-7-ylamino)-pyrimidin-4-ylamino]-bicyclo[2.2.1]hept-5-ene-2-carboxylic acid amide]
[1]; [3]
  IC50: > 10000 nM
[2]; [4]
  IC50: < 100 nM
